Laboratory results as given in patent publication US20060069132A1, “Azolecarboxamide herbicides” (priority 2004, published 2006).

Experiments:
barnyardgrass (ECHCG) = experiment: Test J Compounds 2 and 6 alone and in combination with other herbicides, foliage spray; type: in vivo, Echinochloa crus-galli; set-up: key to ECHCG Obsd.: percentage herbicidal effect (observed); settings: for ECHCG Obsd.: applied alone
From the text: (§1) Colby's Equation was used to calculate the expected additive herbicidal effect of the mixtures of Compound 6 with Harmony® Extra (i.e. a 2:1 mixture by weight of thifensulfuron-methyl and tribenuron-methyl). Colby's Equation (Colby, S. R. “Calculating Synergistic and Antagonistic Responses of Herbicide Combinations,” Weeds, 15(1), pp 20-22 (1967)) calculates the expected additive effect of herbicidal mixtures, and for two active ingredients is of the form: Pa+b=Pa+Pb−(PaPb/100) wherein • Pa+b is the percentage effect of the mixture expected from additive contribution of the individual components, • Pa is the observed percentage effect of the first active ingredient at the same use rate as in the mixture, and • Pb is the observed percentage effect of the second active ingredient at the same use rate as in the mixture.
(§2) Seeds of test plants consisting of barnyardgrass (ECHCG; Echinochloa crus-galli (L.) Beauv.), blackgrass (ALOMY; Alopecurus myosuroides Huds.), Surinam grass (BRADC; Urochloa decumbens (Staph) R. D. Webster, previously named Brachiaria decumbens Stapf), cocklebur (XANST, Xanthium strumarium L.), corn (ZEAMD, Zea mays L. cv. ‘Pioneer 33G26’), large crabgrass (DIGSA, Digitaria sanguinalis (L.) Scop.), giant foxtail (SETFA, Setaria faberi Herrm.), lambsquarters (CHEAL, Chenopodium album L.), morningglory (IPOCO, Ipomoea coccinea L.), pigweed (AMARE, Amaranthus retroflexus L.), velvetleaf (ABUTH, Abutilon theophrasti Medik.) wheat (TRZAS, Triticum aestivum L. cv. ‘Recital’) and wild oat (AVEFA, Avena fatua L.) were planted in Redi-Earth® planting medium (Scotts Company, 14111 Scottslawn Road, Marysville, Ohio 43041) comprising spaghnum peat moss and vermiculite. Seeds of small-seeded species were planted about 1 cm deep; larger seeds were planted about 2.5 cm deep. Plants were grown in a greenhouse using supplemental lighting to maintain a photoperiod of about 14 hours; daytime and nighttime temperatures were about 24-30° C. and 22-25° C., respectively. […] Also listed in Table J are the expected effects for the mixtures calculated using Colby's Equation.

blackgrass (ALOMY) = experiment: as above; type: in vivo, Alopecurus myosuroides; set-up: key: 0 = no effect, 100 = complete control; settings: applied alone
From the text: (§3) Colby's Equation was used to calculate the expected additive herbicidal effect of the mixtures of Compound 6 with Harmony® Extra (i.e. a 2:1 mixture by weight of thifensulfuron-methyl and tribenuron-methyl). […]
as §2, with “vermiculite.” for “vermiculite. Seeds of small-seeded species were planted about 1 cm deep; larger seeds were planted about 2.5 cm deep. Plants were grown in a greenhouse using supplemental lighting to maintain a photoperiod of about 14 hours; daytime and nighttime temperatures were about 24-30° C. and 22-25° C., respectively.”

cocklebur (XANST) = experiment: as above; type: in vivo, Xanthium strumarium; set-up: key: 0 = no effect, 100 = complete control; settings: applied alone
From the text: as §2, with “respectively. Balanced fertilizer was applied through the watering system.” for “respectively.”

large crabgrass (DIGSA) = experiment: as above; type: in vivo, Digitaria sanguinalis; set-up: key: 0 = no effect, 100 = complete control; settings: applied alone
From the text: as §3
as §2, with “vermiculite.” for “vermiculite. Seeds of small-seeded species were planted about 1 cm deep; larger seeds were planted about 2.5 cm deep. Plants were grown in a greenhouse using supplemental lighting to maintain a photoperiod of about 14 hours; daytime and nighttime temperatures were about 24-30° C. and 22-25° C., respectively.”

pigweed (AMARE) = experiment: as above; type: in vivo, Amaranthus retroflexus; set-up: key to AMARE Obsd.: 0 = no effect, 100 = complete control; settings: for AMARE Obsd.: applied alone
From the text: as §1, §2

downy bromegrass = experiment: Test A pre-/postemergence herbicide test; type: in vivo, Bromus tectorum; settings: Preemergence, visual rating, 0 to 100 scale (0 no effect, 100 complete control)
From the text: Seeds of plant species selected from barnyardgrass (Echinochloa crus-galli (L.) Beauv.), downy bromegrass (Bromus tectorum L.), large crabgrass (Digitaria sanguinalis (L.) Scop.), giant foxtail (Setaria faberi Herrm.), morningglory (Ipomoea spp.), redroot pigweed (Amaranthus retroflexus L.) and velvetleaf (Abutilon theophrasti Medik.) were planted into a sandy loam soil and treated preemergence with a directed soil spray using test chemicals formulated in a non-phytotoxic solvent mixture which included a surfactant. At the same time plants selected from these species were also treated postemergence by spraying to runoff with test chemicals formulated.
Plants ranged in height from 2 to 10 cm and were in the one- to two-leaf stage for the postemergence treatment. Treated plants and untreated controls were maintained in a greenhouse for approximately ten days, after which time all treated plants were compared to untreated controls and visually evaluated for injury. Plant response ratings, summarized in Table A, are based on a 0 to 100 scale where 0 is no effect and 100 is complete control. A dash (-) response means no test results.

wild buckwheat = experiment: Test F pre-/postemergence herbicide test; type: in vivo, Polygonum convolvulus
From the text: Seeds of plant species selected from annual blugrass (Poa annua L.), blackgrass (Alopecurus myosuroides Huds.), catchweed bedstraw (Gallium aparine L.), common chickweed (Stellaria media (L.) Vill./Cyr.), downy bromegrass (Bromus tectorum L.), green foxtail (Setaria viridis (L.) Beauv.), Italian ryegrass (Lolium multiflorum Lam.), kochia (Kochia scoparia (L.). Schrad.), lambsquarters (Chenopodium album L.), littleseed canarygrass (Phalaris minor Retz.), pigweed (Amaranthus retroflexus L.), Russian thistle (Salsola kali L. ssp. Ruthenica (Iljin) Soo), wild buckwheat (Polygonum convolvulus L.), wild mustard (Sinapis arvensis L.), wild oat (Avena fatua L.), windgrass (Apera spica-venti (L.) Beauv.), winter barley (Hordeum vulgare L.), and wheat (Triticum aestivum L.) were planted and treated preemergence with test chemicals formulated in a non-phytotoxic solvent mixture which included a surfactant.
At the same time, plants selected from these crop and weed species were treated with postemergence applications of some of the test chemicals formulated in the same manner. Plants ranged in height from 2 to 18 cm (1- to 4-leaf stage) for postemergence treatments. Treated plants and controls were maintained in a greenhouse for 12 to 14 days, after which time all species were compared to controls and visually evaluated. Plant response ratings, summarized in Table F, are based on a scale of 0 to 100 where 0 is no effect and 100 is complete control. A dash (-) response means no test result.

With `CCn1nc(C(C)(C)C)cc1C(=O)Nc1cc(C(=O)N(C)C)ccc1F` [Compound 6, N-[5-[(dimethylamino)carbonyl]-2-fluorophenyl]-3-(1,1-dimethylethyl)-1-ethyl-1H-pyrazole-5-carboxamide] the “ECHCG Obsd.” value (barnyardgrass (ECHCG); 62 g a.i./ha) was 17, the “ECHCG Obsd.” value (barnyardgrass (ECHCG); 125 g a.i./ha) was 63 and the “observed effect of mixture compared with additive effect expected from Colby's Equation” value (barnyardgrass (ECHCG); mixture with terbacil, barnyardgrass, foliage spray, 15 days after treatment) was “greater than additive”. For the same molecule, the “ALOMY Obsd.” value (blackgrass (ALOMY); 62 g a.i./ha) was 18, the “ALOMY Obsd.” value (blackgrass (ALOMY); 125 g a.i./ha) was 33 and the “XANST Obsd.” value (cocklebur (XANST); 62 g a.i./ha) was 67. The “XANST Obsd.” value (cocklebur (XANST); 125 g a.i./ha) was 63, the “DIGSA Obsd.” value (large crabgrass (DIGSA); 62 g a.i./ha) was 8 and the “DIGSA Obsd.” value (large crabgrass (DIGSA); 125 g a.i./ha) was 13. For the same molecule, the “AMARE Obsd.” value (pigweed (AMARE); 62 g a.i./ha) was 28, the “AMARE Obsd.” value (pigweed (AMARE); 125 g a.i./ha) was 60 and the “observed effect of mixture compared with additive effect expected from Colby's Equation” value (pigweed (AMARE); mixture with atrazine, pigweed, foliage spray, 15 days after treatment) was “greater than additive”.

In the case of `CC(=NO)c1cccc(NC(=O)c2cc(C(C)(C)C)nn2C)c1` [Compound 102], the “Bromegrass, Downy plant response rating” value (downy bromegrass; 500 g ai/ha) is reported as 60 and the “Bromegrass, Downy plant response rating” value (downy bromegrass; 2000 g ai/ha) is reported as 60.

`CCn1nc(C(C)(C)C)cc1C(=O)Nc1cc(C(=O)OC(C)C)c(F)cc1F` [Compound 248] was tested, and the “Plant response rating (0-100), Buckwheat, Wild” value (from here on “Plant response rating … Wild”) (wild buckwheat; Postemergence, 31 g ai/ha) was 50, the “Plant response rating … Wild” value (wild buckwheat; Postemergence, 62 g ai/ha) was 50 and the “Plant response rating … Wild” value (wild buckwheat; Postemergence, 125 g ai/ha) was 50. For the same molecule, the “Plant response rating … Wild” value (wild buckwheat; Postemergence, 250 g ai/ha) was 60, the “Plant response rating … Wild” value (wild buckwheat; Preemergence, 31 g ai/ha) was 30 and the “Plant response rating … Wild” value (wild buckwheat; Preemergence, 62 g ai/ha) was 40. The “Plant response rating … Wild” value (wild buckwheat; Preemergence, 125 g ai/ha) was 45 and the “Plant response rating … Wild” value (wild buckwheat; Preemergence, 250 g ai/ha) was 60.
